Measurements published in ChEMBL document CHEMBL4699592, “Nature-Inspired (di)Azine-Bridged Bisindole Alkaloids with Potent Antibacterial In Vitro and In Vivo Efficacy against Methicillin-Resistant Staphylococcus aureus” (J Med Chem, 2020).
≈ marks a conversion by molar mass, not a printed value. Calls of active or inactive are those of the source. No cut-off for these calls is given here.

Columns and labels:
Acinetobacter baumannii = test: Antibacterial activity against Acinetobacter baumannii ATCC BAA-1605 at 0.78 to 100 uM after 24 hrs by broth microdilution method; format: functional, organism-based; settings: dose microM 0.78-100, time 24.0 hrs
[1] = test system: Mycobacterium tuberculosis; test: Antibacterial activity against Mycobacterium tuberculosis H37Rv at 0.78 to 100 uM after 5 days by resazurin dye based fluorescence assay; format: functional, organism-based; settings: dose microM 0.78-100, time 5.0 day
Staphylococcus aureus [2] = test: Antibacterial activity against […] Staphylococcus aureus ATCC 700699 after 24 hrs by broth microdilution method; format: functional
[3] = Selectivity index, ratio of IC50 for cytotoxicity against human THP-1 cells to MIC90 for antibacterial activity against […] Staphylococcus aureus ATCC 700699; format: toxicity, cell-based; settings: read-out: Selectivity Index
MRC5 = test: Cytotoxicity against human MRC5 cells assessed as reduction in cell viability at >=12.5 uM measured after 48 hrs by resazurin dye based fluorescence assay; settings: mrc5, 48 h
THP-1 = test: Cytotoxicity against human THP-1 cells assessed as reduction in cell viability at >=12.5 uM measured after 48 hrs by resazurin dye based fluorescence assay; settings: thp-1, 48 h
[4] = Selectivity index, ratio of IC50 for cytotoxicity against human MRC5 cells to MIC90 for antibacterial activity against […] Staphylococcus aureus ATCC 700699; format: toxicity, cell-based; settings: read-out: Selectivity Index
Staphylococcus aureus [5] = test: Bactericidal activity against […] Staphylococcus aureus ATCC 700699 assessed as reduction in bacterial viability at 5 fold MIC incubated for 6 hrs by time kill assay relative to control; format: functional
Staphylococcus aureus [6] = test: Bactericidal activity against […] Staphylococcus aureus ATCC 700699 assessed as colony forming units at 5 fold MIC measured after 24 hrs by time kill assay; format: functional
Staphylococcus aureus [7] = test: Antibacterial activity against methicillin-resistant Staphylococcus aureus USA300 LAC at 0.15 to 25 uM incubated for 24 hrs under low glucose medium by resazurin dye based fluorescence assay; format: functional, organism-based; settings: dose microM 0.15-25, time 24.0 hrs
Staphylococcus aureus [8] = test: Antibacterial activity against methicillin-resistant Staphylococcus aureus USA300 LAC at 0.15 to 25 uM incubated for 24 hrs under low pyruvate containing medium by resazurin dye based fluorescence assay; format: functional, organism-based; settings: dose microM 0.15-25, time 24.0 hrs
Staphylococcus aureus [9] = test: Antibacterial activity against methicillin-resistant pyruvate kinase deficient Staphylococcus aureus USA300 LAC at 0.15 to 25 uM incubated for 24 hrs under low pyruvate containing medium by resazurin dye based fluorescence assay; format: functional, organism-based; settings: dose microM 0.15-25, time 24.0 hrs
Enterococcus faecium [10] = test: Antibacterial activity against vancomycin-resistant Enterococcus faecium ATCC 35667 at 0.78 to 100 uM after 24 hrs by broth microdilution method; format: functional, organism-based; settings: dose microM 0.78-100, time 24.0 hrs
Enterococcus faecium [11] = test: Antibacterial activity against vancomycin-resistant Enterococcus faecium ATCC 700221 at 0.78 to 100 uM after 24 hrs by broth microdilution method; format: functional, organism-based; settings: dose microM 0.78-100, time 24.0 hrs
Enterococcus faecalis [12] = test: Antibacterial activity against Enterococcus faecalis ATCC 51299 at 0.78 to 100 uM after 24 hrs by broth microdilution method; format: functional, organism-based; settings: dose microM 0.78-100, time 24.0 hrs
Enterococcus faecalis [13] = test: Antibacterial activity against Enterococcus faecalis ATCC 29212 at 0.78 to 100 uM after 24 hrs by broth microdilution method; format: functional, organism-based; settings: dose microM 0.78-100, time 24.0 hrs
Staphylococcus aureus [14] = test: Antibacterial activity against methicillin susceptible Staphylococcus aureus ATCC 25923 at 0.78 to 100 uM after 24 hrs by broth microdilution method; format: functional, organism-based; settings: dose microM 0.78-100, time 24.0 hrs
[15] = Solubility of compound in pH 7.7 PBS buffer; format: physicochemical

Structure (SMILES): COc1ccc2[nH]cc(-c3cccc(-c4c[nH]c5ccc(OC)cc45)n3)c2c1
- Activity (Acinetobacter baumannii): inactive
- Activity [1]: inactive
- MIC90 (Staphylococcus aureus [2]): 12.5 µM (≈ 4.62 µg/mL)

Structure (SMILES): Clc1ccc2[nH]cc(-c3ccc(-c4c[nH]c5ccc(Cl)cc45)nn3)c2c1
- selectivity ratio [3]: 8
- Activity (MRC5): Toxic
- Activity (THP-1): Toxic
- Activity (Acinetobacter baumannii): inactive
- Activity [1]: inactive
- MIC90 (Staphylococcus aureus [2]): 0.78 µM (≈ 0.296 µg/mL)
- selectivity ratio [4]: 8
- fold change (FC) (Staphylococcus aureus [5]): 100
- Activity (Staphylococcus aureus [6]): <10 CFU/ml
- Activity (Staphylococcus aureus [7]): Active
- Activity (Staphylococcus aureus [8]): Active
- Activity (Staphylococcus aureus [9]): Active

Structure (SMILES): Oc1ccc2[nH]cc(-c3cnc(-c4c[nH]c5ccc(O)cc45)cn3)c2c1
- Activity (Enterococcus faecium [10]): inactive
- Activity (Enterococcus faecium [11]): inactive
- Activity (Enterococcus faecalis [12]): inactive
- Activity (Enterococcus faecalis [13]): inactive
- Activity (Acinetobacter baumannii): inactive
- Activity [1]: inactive
- Activity (Staphylococcus aureus [14]): inactive
- MIC90 (Staphylococcus aureus [2]): > 100 µM

Structure (SMILES): Brc1ccc2c(-c3cnc(-c4c[nH]c5cc(Br)ccc45)cn3)c[nH]c2c1
- Activity (Acinetobacter baumannii): inactive
- Activity [1]: inactive
- MIC90 (Staphylococcus aureus [2]): > 100 µM

Structure (SMILES): c1ccc2c(-c3cnc(-c4c[nH]c5ccccc45)cn3)c[nH]c2c1
- Activity (Acinetobacter baumannii): inactive
- Activity [1]: inactive
- MIC90 (Staphylococcus aureus [2]): > 100 µM

Structure (SMILES): c1ccc2c(-c3ccc(-c4c[nH]c5ccccc45)nn3)c[nH]c2c1
- Activity (Acinetobacter baumannii): inactive
- Activity [1]: inactive
- MIC90 (Staphylococcus aureus [2]): > 100 µM

Structure (SMILES): Fc1ccc2[nH]cc(-c3cnc(-c4c[nH]c5ccc(F)cc45)nc3)c2c1
- Activity (Acinetobacter baumannii): inactive
- Activity [1]: inactive
- MIC90 (Staphylococcus aureus [2]): 12.5 µM (≈ 4.33 µg/mL)

Structure (SMILES): Oc1ccc2[nH]cc(-c3cnc(-c4c[nH]c5ccc(O)cc45)nc3)c2c1 [HYRTINADINE A]
- Activity (Enterococcus faecium [10]): inactive
- Activity (Enterococcus faecium [11]): inactive
- Activity (Enterococcus faecalis [12]): inactive
- Activity (Enterococcus faecalis [13]): inactive
- Activity (Acinetobacter baumannii): inactive
- Activity [1]: inactive
- Activity (Staphylococcus aureus [14]): inactive
- MIC90 (Staphylococcus aureus [2]): > 100 µM

Structure (SMILES): COc1ccc2[nH]cc(-c3cnc(-c4c[nH]c5ccc(OC)cc45)nc3)c2c1
- Activity (Enterococcus faecium [10]): inactive
- Activity (Enterococcus faecium [11]): inactive
- Activity (Enterococcus faecalis [12]): inactive
- Activity (Enterococcus faecalis [13]): inactive
- Activity (Acinetobacter baumannii): inactive
- Activity [1]: inactive
- Activity (Staphylococcus aureus [14]): inactive
- MIC90 (Staphylococcus aureus [2]): 50 µM (≈ 18.5 µg/mL)

Structure (SMILES): COc1ccc2[nH]cc(-c3cnc(-c4c[nH]c5ccc(OC)cc45)cn3)c2c1
- Activity (Enterococcus faecium [10]): inactive
- Activity (Enterococcus faecium [11]): inactive
- Activity (Enterococcus faecalis [12]): inactive
- Activity (Enterococcus faecalis [13]): inactive
- Activity (Acinetobacter baumannii): inactive
- Activity [1]: inactive
- Activity (Staphylococcus aureus [14]): inactive
- MIC90 (Staphylococcus aureus [2]): > 100 µM

Structure (SMILES): Clc1ccc2[nH]cc(-c3cncc(-c4c[nH]c5ccc(Cl)cc45)n3)c2c1
- Activity (Acinetobacter baumannii): inactive
- Activity [1]: inactive
- MIC90 (Staphylococcus aureus [2]): 0.39 µM (≈ 0.148 µg/mL)
- solubility [15]: Insoluble
